Data as given in ChEMBL document CHEMBL4251695, “Data Sets Representative of the Structures and Experimental Properties of FDA-Approved Drugs” (ACS Med Chem Lett, 2018).

What was measured:
Type in all cases: ADME, organism-based
Settings in all cases: in vivo
[1] = Cmax in human
[2] = Clearance in human
[3] = species: Homo sapiens; assay: Half life in human

Row | Compound | clearance [2] | further results
1 | CC(C)C[C@H]1C(=O)N2CCC[C@H]2[C@]2(O)O[C@](NC(=O)[C@@H]3C=C4c5cccc6[nH]c(Br)c(c56)C[C@H]4N(C)C3)(C(C)C)C(=O)N12 [BROMOCRIPTINE] |  | Cmax [1]: 0.711 nM
2 | CCCCC[C@H](O)/C=C/[C@H]1[C@H](O)CC(=O)[C@@H]1CCCCCCC(=O)O [ALPROSTADIL] | 115000 mL/min | 
3 | Nc1ccn([C@@H]2O[C@H](CO)[C@@H](O)[C@@H]2O)c(=O)n1 [CYTARABINE] | 0.233 mL/min | 
4 | COc1cc2c(cc1OC)[C@@H](Cc1cc(OC)c(OC)c(OC)c1)[N+](C)(CCCOC(=O)CC/C=C/CCC(=O)OCCC[N+]1(C)CCc3cc(OC)c(OC)cc3[C@H]1Cc1cc(OC)c(OC)c(OC)c1)CC2 (some centres undefined) |  | t1/2 [3]: 2 min
